What was measured:
intimal hyperplasia = test system: intimal hyperplasia
Text: FIG. 5A depicts the rat balloon injury experiment. H&E staining is shown. Arrowheads indicate the intima. Scale bar=200 μm. […] Scale bar=100 Neointima is highlighted. Red arrows indicate the region with high SMA expression. Yellow arrows indicate the region with low SMA expression. […] Red arrows indicate the region with high MYH11 expression. Yellow arrows indicate the region with low MYH11 expression. […] Red arrows indicate the region with high SM22α expression. Yellow arrows indicate the region with low SM22α expression. […] The “% of high expression”=ratio of “area of high expression”! “total area of intima and media”. Data are represented as mean±SD. […] Scale bar=100 μm. Neointima is highlighted.
Rat carotid artery balloon injury model and periadventitial delivery—This animal study was conducted with approval from the UW-Madison Department of Surgery Animal Care and Use Committee. Briefly, 2 mg (2 animals/group) or 10 mg (3 animals/group) of RepSox (or DMSO) dissolved in Regel (Tri-block gel) (Regel tri-block gel is described in Chen et al. “Unimolecular Micelle-Based Hybrid System for Perivascular Drug Delivery Produces Long-Term Efficacy for Neointima Attenuation in Rats,” Biomacromolecules, 2017 Jun. 14. doi: 10.1021/acs.biomac.7b00617) was applied to the outside of the injured artery segment immediately after balloon injury of the rat carotid artery. Two weeks post-surgery, arteries were collected and sectioned. The ratio of intima area versus media area and lumen area were measured by Image J.
We next examined the function of RepSox in a rat intimal hyperplasia model. In order to reduce any side effect induced by systematic drug delivery, RepSox or DMSO was dissolved in gel and then applied to the outside of the injured artery segment immediately after balloon injury of the rat carotid artery (Shi et al., 2014). Carotid arteries were collected and sectioned 14 days after surgery. […] To test the effect of RepSox, we performed qPCR analysis.

MYH11-Tom+ cells = assay: Flow cytometric analysis of MYH11-Tom+ cells in SMC differentiation; type: cell-based, human; conditions: RepSox 25 μM, day 12-24
Experimental: (§1) Data are represented as mean±standard deviation (SD). […] Scale bar=1 mm. […] Scale bar=50 μm. […] Data are represented as mean±SD. Student's t-test, *: P<0.05, n=3.
FIGS. 7A-7G show the target of RepSox. […] Cells were treated with RepSox (25 μM) or SiRNA. […] Cells were treated with RepSox (25 μM) or SiRNA. […] During the smooth muscle cells differentiation, cells were treated with or without RepSox from day 10-11. […] During the smooth muscle cells differentiation, cells were treated with RepSox for 1 or 20 hours at day 12. […] Cells were treated with RepSox and non-targeting control (NT)/SiRNA at day 10. The RNA was isolated at day 14.
Optimized smooth muscle cell differentiation—Human pluripotent stem cell cells (H1) were cultured in E8 medium on a […]™-coated plate. To achieve the best differentiation results, ES cells were split using EDTA at 1:4 ratios two days before the differentiation. The cells reached 80-90% confluency two days later. At the day of the differentiation, ES cells were dissociated by ACCUTASE™ (Invitrogen) for 3-5 min at 37 ° C. The cells were plated on a […]™-coated plate at 1:4 ratios (1×10^5 cells/cm2). […] An increased CHIR99021 concentration of 3 μM decreased cell proliferation at 36 hours but increased MYH11 expression. At 36 hours, the cells were passaged and seeded on a new […]™-coated plate (1.6×10^4 cells/cm2). The low cell density is critical for the differentiation. A cell density of 1.0-4.0×10^4 cells/cm2 for different cell lines can be tested, such that 100% cell confluence will be achieved at day 6, which gives rise to the best differentiation efficiency. The cells were treated with E6T medium (E8 medium minus FGF2 but still containing 1.7 ng/ml TGF-β1) for 18 hours to induce the transient and medium level expression of MEOX1. E5F medium (E8 medium minus insulin and TGF-β1, but still containing 100 ng/ml FGF2) was used to suppress MEOX1 expression for another 5 days (days 3-8). Next, the cells were treated with E6FVR medium (E6 medium with 100 ng/ml FGF2, 50 ng/ml VEGFA, and 5 μM RESV, a NOTCH agonist) to induce SMC progenitors from day 8-12. E6R (E6 medium+5 μM RESV) medium supplemented with RepSox (25 μM), was then used to further mature SMCs from day 12 to 24. Cells were split (1×10^5 cells/cm2) at day 16 and further differentiated until day 24. The cells can be cryopreserved at day 16 or day 24. For P-SMCs, T-SMCs, and PT-SMCs, RepSox was replaced by PDGF-BB (10 ng/ml), TGF-β1 (1.7 ng/ml), or combination of PDGF-BB and TGF-β1, respectively, from day 12 to 24. From day 0-4: medium was changed every day. From day 2-24: medium was changed every other day. For day 1 and day 8-24, 1.5×volumes of medium, compared to the normal volume used in the well, were used. […]

NOTCH1 = test system: NOTCH1
Experimental: Data are represented as mean±SD, n=3 biological replicates. *, p<0.05, student t-test. […] Cells were treated with RepSox (25 μM) or SiRNA. Comb3: Knockdown of TGFBR1, ACVR1B, and ACVR1C at the same time. Data are represented as mean±SD, n=2 biological replicates. *, p<0.05, student t-test. […] Cells were treated with RepSox (25 μM) or SiRNA. Data are represented as mean±SD, n=2 biological replicates. *, p<0.05, student t-test. […] During the smooth muscle cells differentiation, cells were treated with or without RepSox from day 10-11. […] During the smooth muscle cells differentiation, cells were treated with RepSox for 1 or 20 hours at day 12. […] Data are represented as mean±SD, n=3 biological replicates. *, p<0.05, student t-test. […] Cells were treated with RepSox and non-targeting control (NT)/SiRNA at day 10. The RNA was isolated at day 14.

[1] = test system: contractile and ECM genes (MYH11, SMTN, CNN1, ELN, ACTA2, TAGLN, COL1A1); assay: RT-qPCR of pluripotent stem cell-derived SMCs; type: cell-based, human; conditions: versus previous protocol (Cheung's LM-SMCs)
Text: as §1
FIGS. 9A-9B show a comparison of MYH11 expression in RepSox-SMCs and Cheung's LM-SMCs. […] Data are normalized to Cheung's LM-SMCs and represented as mean±SD, n=3 for all the samples except fresh human artery (n=2). *, p<0.05, student t-test.
Optimized smooth muscle cell differentiation—Human pluripotent stem cell cells (H1) were cultured in E8 medium on a […]™-coated plate. To achieve the best differentiation results, ES cells were split using EDTA at 1:4 ratios two days before the differentiation. The cells reached 80-90% confluency two days later. At the day of the differentiation, ES cells were dissociated by ACCUTASE™ (Invitrogen) for 3-5 min at 37 ° C. The cells were plated on a […]™-coated plate at 1:4 ratios (1×10^5 cells/cm2). […] An increased CHIR99021 concentration of 3 μM decreased cell proliferation at 36 hours but increased MYH11 expression. At 36 hours, the cells were passaged and seeded on a new […]™-coated plate (1.6×10^4 cells/cm2). The low cell density is critical for the differentiation. A cell density of 1.0-4.0×10^4 cells/cm2 for different cell lines can be tested, such that 100% cell confluence will be achieved at day 6, which gives rise to the best differentiation efficiency. […]

Cc1cccc(-c2n[nH]cc2-c2ccc3ncccc3n2)n1 [RepSox, RepSox (SJN 2511)]
intima/media ratio (intimal hyperplasia; 2 mg or 10 mg RepSox in gel periadventitially, 14 days after surgery, DMSO control 1.5): 0.5 | endothelia cell marker expression (qPCR) (intimal hyperplasia; injured rat carotid artery, versus DMSO): increased | apoptosis in intima (TUNEL) (intimal hyperplasia; versus DMSO): increased | expression of contractile proteins SMA, MYH11 and SM22α (intimal hyperplasia; versus DMSO): significantly increased | proliferation in intima and media layer (immunostaining) (intimal hyperplasia; versus DMSO): decreased proliferation in intima but not media layer | efficiency of SMC differentiation (MYH11-tdTomato+) (MYH11-Tom+ cells): > 95% | RepSox treatment time after which increased NOTCH signaling could be detected (NOTCH1; RepSox for 1 or 20 hours at day 12): 1 h | full-length NOTCH1 and intracellular domain (NICD) expression (NOTCH1; treated with or without RepSox day 10-11): enhanced | improvement of MYH11 expression (RT-qPCR) [1]: 23 fold

Reference: patent US20190010461A1, “HUMAN PLURIPOTENT STEM CELL-BASED SCREENING FOR SMOOTH MUSCLE CELL DIFFERENTIATION AND DISEASE” (Wisconsin Alumni Research Foundation, priority 2017, published 2019)
